In US8883801B2, “Substituted pyrazolo[1,5-a]pyrimidines as mTOR inhibitors” (Merck Sharp & Dohme Corp., priority 2010, dated 2014):

Legend:
[1] = test system: mTORC2 activity: phosphorylated AKT Ser473 (pAKT S473) in PC3 cells; assay: mTOR target engagement assay, immunofluorescent cell-based, mTORC2 readout; conditions: Homo sapiens, PC-3, 1.5 h, rated class, 90 min treatment
Summary of the method: (§1)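 Read-out is immunofluorescence intensity, normalized to DMSO-only wells and fitted to a sigmoidal Hill equation for IC50. The mTORC1 arm probes phospho-4E-BP1 Thr37/46 and the mTORC2 arm phospho-AKT Ser473.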

[2] = target: human mTOR enzyme (Homo sapiens, UniProt P42345); assay: HTRF mTOR enzyme (kinase) assay; format: biochemical; conditions: rated class; 5 μM ATP, 0.2 μM GST-S6K; read-out: hMTOR IC50
[3] = test system: mTORC1 activity: phosphorylated 4E-BP1 Thr37/46 (p4E-BP1 Thr37/46) in PC3 cells; assay: mTOR target engagement assay, immunofluorescent cell-based, mTORC1 readout; conditions: Homo sapiens, PC-3, 1.5 h, rated class, 90 min treatment, read-out: P4EBP1 IC50
Summary of the method: as §1

Sequence of human mTOR enzyme (P42345 1360-2549 limits assumed): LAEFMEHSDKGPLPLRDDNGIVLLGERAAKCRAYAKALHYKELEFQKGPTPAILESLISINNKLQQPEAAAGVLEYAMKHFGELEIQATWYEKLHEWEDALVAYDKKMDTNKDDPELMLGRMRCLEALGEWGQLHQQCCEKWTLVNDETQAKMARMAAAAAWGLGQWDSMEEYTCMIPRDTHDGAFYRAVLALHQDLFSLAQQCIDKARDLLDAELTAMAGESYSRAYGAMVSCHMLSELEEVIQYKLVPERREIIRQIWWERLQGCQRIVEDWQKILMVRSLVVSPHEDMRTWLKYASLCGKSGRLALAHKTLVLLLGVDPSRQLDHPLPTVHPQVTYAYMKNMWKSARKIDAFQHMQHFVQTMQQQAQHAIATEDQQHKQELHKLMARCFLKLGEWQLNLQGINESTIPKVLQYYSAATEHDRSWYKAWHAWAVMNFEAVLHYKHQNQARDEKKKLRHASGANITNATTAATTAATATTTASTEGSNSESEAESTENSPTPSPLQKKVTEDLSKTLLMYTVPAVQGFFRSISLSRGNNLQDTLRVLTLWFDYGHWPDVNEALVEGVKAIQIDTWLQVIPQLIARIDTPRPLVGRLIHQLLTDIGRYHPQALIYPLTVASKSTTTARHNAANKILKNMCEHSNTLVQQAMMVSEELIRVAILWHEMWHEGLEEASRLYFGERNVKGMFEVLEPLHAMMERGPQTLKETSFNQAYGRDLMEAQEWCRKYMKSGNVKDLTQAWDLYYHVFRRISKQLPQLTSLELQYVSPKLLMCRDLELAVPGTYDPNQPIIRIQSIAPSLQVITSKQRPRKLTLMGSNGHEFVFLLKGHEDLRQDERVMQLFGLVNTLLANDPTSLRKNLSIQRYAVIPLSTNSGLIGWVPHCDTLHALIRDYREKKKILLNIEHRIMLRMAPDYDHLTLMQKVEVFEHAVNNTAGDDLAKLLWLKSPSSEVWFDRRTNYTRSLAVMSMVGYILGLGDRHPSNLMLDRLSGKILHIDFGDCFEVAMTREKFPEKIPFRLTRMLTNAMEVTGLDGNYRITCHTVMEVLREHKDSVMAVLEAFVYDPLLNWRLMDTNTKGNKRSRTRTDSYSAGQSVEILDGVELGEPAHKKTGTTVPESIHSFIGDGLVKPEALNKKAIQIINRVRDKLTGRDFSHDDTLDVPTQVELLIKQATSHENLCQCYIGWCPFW

Structure (SMILES)	IC50 [1] [µM]	IC50 [2] [µM]	IC50 [3] [µM]
COCCO[C@]1(c2nnn[nH]2)CC[C@@H](c2nc3c(-c4ccc(-c5ccccc5)nc4)cnn3c(N)c2S(C)(=O)=O)CC1 [Compound 119]	1 to 2	0.001 to 0.1	2 to 5
COCCO[C@]1(c2noc(=O)[nH]2)CC[C@@H](c2nc3c(-c4cnn(-c5ccccc5)c4)cnn3c(N)c2S(C)(=O)=O)CC1 [Compound 121, 3-((1R,4R)-4-(7-amino-6-(methylsulfonyl)-3-(1-phenyl-1H-pyrazol-4-yl)pyrazolo[1,5-a]pyrimidin-5-yl)-1-(2-methoxyethoxy)cyclohexyl)-1,2,4-oxadiazol-5(4H)-one]	0.1 to 1	0.001 to 0.1	0.1 to 1
COCCO[C@]1(C(=O)c2nnc[nH]2)CC[C@@H](c2cc(N)n3ncc(-c4ccc(-c5ccccc5)nc4)c3n2)CC1 [Compound 126, ((1R,4R)-4-(7-amino-3-(6-phenylpyridin-3-yl)pyrazolo[1,5-a]pyrimidin-5-yl)-1-(2-methoxyethoxy)cyclohexyl)(4H-1,2,4-triazol-3-yl)methanone]	0.1 to 1	0.001 to 0.1	1 to 2
COCCO[C@]1(c2nnc[nH]2)CC[C@@H](c2nc3c(-c4cnn(-c5ccccc5)c4)cnn3c(N)c2S(C)(=O)=O)CC1 [Compound 127, 5-((1R,4R)-4-(2-methoxyethoxy)-4-(4H-1,2,4-triazol-3-yl)cyclohexyl)-6-(methylsulfonyl)-3-(1-phenyl-1H-pyrazol-4-yl)pyrazolo[1,5-a]pyrimidin-7-amine]	0.1 to 1	0.001 to 0.1	0.1 to 1
COCCO[C@]1(c2nnc[nH]2)CC[C@@H](c2nc3c(-c4ccc(-c5ccccc5)nc4)cnn3c(N)c2S(C)(=O)=O)CC1 [Compound 128]	0.1 to 1	0.001 to 0.1	0.1 to 1
Nc1c(Br)c(C2CCC(O)(C(=O)O)CC2)nc2c(-c3ccc(-c4ccccc4)nc3)cnn12 (stereo not drawn) [Compound 131, 4-(7-amino-6-bromo-3-(6-phenylpyridin-3-yl)pyrazolo[1,5-a]pyrimidin-5-yl)-1-hydroxycyclohexanecarboxylic acid]	1 to 2	0.001 to 0.1	2 to 5
CC(=O)c1c(C2CCC(CO)(C(=O)O)CC2)nc2c(-c3ccc(-c4ccccc4)nc3)cnn2c1N (stereo not drawn) [Compound 133, 4-(6-acetyl-7-amino-3-(6-phenylpyridin-3-yl)pyrazolo[1,5-a]pyrimidin-5-yl)-1-(hydroxymethyl)cyclohexanecarboxylic acid]	0.1 to 1	0.001 to 0.1	0.1 to 1
CC(=O)c1c(N)n2ncc(-c3ccc(-c4ccccc4)nc3)c2nc1[C@H]1CC[C@@](O)(CO)CC1 [Compound 139, 1-(7-amino-5-((1R,4R)-4-hydroxy-4-(hydroxymethyl)cyclohexyl)-3-(6-phenylpyridin-3-yl)pyrazolo[1,5-a]pyrimidin-6-yl)ethanone]	0.1 to 1	0.001 to 0.1	0.1 to 1
CC(=O)c1c(C2CCC(O)(CO)CC2)nc2c(-c3ccc(-c4nccs4)nc3)cnn2c1N (stereo not drawn) [Compound 156, 1-(7-amino-5-(4-hydroxy-4-(hydroxymethyl)-cyclohexyl)-3-(6-(thiazol-2-yl)pyridin-3-yl)pyrazolo[1,5-a]pyrimidin-6-yl)ethanone]	0.1 to 1	0.001 to 0.1	0.1 to 1
CC(=O)c1c(C2CCC(O)(CO)CC2)nc2c(-c3cnc(-c4ccccc4)nc3)cnn2c1N (stereo not drawn) [Compound 158, 1-(7-amino-5-(4-hydroxy-4-(hydroxymethyl)-cyclohexyl)-3-(2-phenylpyrimidin-5-yl)pyrazolo[1,5-a]pyrimidin-6-yl)ethanone]	0.1 to 1	0.001 to 0.1	0.1 to 1
CC(=O)c1c(C2CCC(O)(CNS(C)(=O)=O)CC2)nc2c(-c3ccc(-c4ccccc4)nc3)cnn2c1N (stereo not drawn) [Compound 160, N-((4-(6-acetyl-7-amino-3-(6-phenylpyridin-3-yl)pyrazolo[1,5-a]pyrimidin-5-yl)-1-hydroxycyclohexyl)methyl)methanesulfonamide]	0.1 to 1	0.001 to 0.1	0.1 to 1
CC(=O)c1c(N)n2ncc(-c3ccc(-c4ccccc4)nc3)c2nc1[C@H]1CC[C@@](O)(CS(C)(=O)=O)CC1 [Compound 161, 1-(7-amino-5-((1R,4R)-4-hydroxy-4-(methylsulfonylmethyl)cyclohexyl)-3-(6-phenylpyridin-3-yl)pyrazolo[1,5-a]pyrimidin-6-yl)ethanone]	0.1 to 1	0.001 to 0.1	0.1 to 1

Results, then the molecule that gave them:

IC50 [1] [µM]	IC50 [2] [µM]	IC50 [3] [µM]	Structure (SMILES)
0.1 to 1	0.001 to 0.1	1 to 2	COCCO[C@]1(C#N)CC[C@@H](c2nc3c(-c4cnn(-c5ccccc5)c4)cnn3c(N)c2S(C)(=O)=O)CC1 [Compound 117, (1R,4R)-4-(7-amino-6-(methylsulfonyl)-3-(1-phenyl-1H-pyrazol-4-yl)pyrazolo[1,5-a]pyrimidin-5-yl)-1-(2-methoxyethoxy)cyclohexanecarbonitrile]
0.1 to 1	0.001 to 0.1	0.1 to 1	COCCO[C@]1(c2nnn[nH]2)CC[C@@H](c2nc3c(-c4cnn(-c5ccccc5)c4)cnn3c(N)c2S(C)(=O)=O)CC1 [Compound 118, 5-((1R,4R)-4-(2-methoxyethoxy)-4-(1H-tetrazol-5-yl)cyclohexyl)-6-(methylsulfonyl)-3-(1-phenyl-1H-pyrazol-4-yl)pyrazolo[1,5-a]pyrimidin-7-amine]
0.1 to 1	0.001 to 0.1	0.1 to 1	COCCO[C@]1(C(=N)N)CC[C@@H](c2nc3c(-c4cnn(-c5ccccc5)c4)cnn3c(N)c2S(C)(=O)=O)CC1 [Compound 120, (1R,4R)-4-(7-amino-6-(methylsulfonyl)-3-(1-phenyl-1H-pyrazol-4-yl)pyrazolo[1,5-a]pyrimidin-5-yl)-1-(2-methoxyethoxy)cyclohexanecarboximidamide]
0.001 to 0.1	0.001 to 0.1	0.001 to 0.1	COCCO[C@]1(C(=O)c2nnc[nH]2)CC[C@@H](c2nc3c(-c4cnn(-c5ccccc5)c4)cnn3c(N)c2S(C)(=O)=O)CC1 [Compound 122, ((1R,4R)-4-(7-amino-6-(methylsulfonyl)-3-(1-phenyl-1H-pyrazol-4-yl)pyrazolo[1,5-a]pyrimidin-5-yl)-1-(2-methoxyethoxy)cyclohexyl)(4H-1,2,4-triazol-3-yl)methanone]
0.001 to 0.1	0.001 to 0.1	0.001 to 0.1	COCCO[C@]1(C(=O)c2nnc[nH]2)CC[C@@H](c2nc3c(-c4ccc(-c5ccccc5)nc4)cnn3c(N)c2S(C)(=O)=O)CC1 [Compound 125, ((1R,4R)-4-(7-amino-6-(methylsulfonyl)-3-(6-phenylpyridin-3-yl)pyrazolo[1,5-a]pyrimidin-5-yl)-1-(2-methoxyethoxy)cyclohexyl)(4H-1,2,4-triazol-3-yl)methanone]
0.001 to 0.1	0.001 to 0.1	0.1 to 1	COCCO[C@]1(C(=O)CO)CC[C@@H](c2nc3c(-c4cnn(-c5ccccc5)c4)cnn3c(N)c2S(C)(=O)=O)CC1 [Compound 129, 1-((1R,4R)-4-(7-amino-6-(methylsulfonyl)-3-(1-phenyl-1H-pyrazol-4-yl)pyrazolo[1,5-a]pyrimidin-5-yl)-1-(2-methoxyethoxy)cyclohexyl)-2-hydroxyethanone]
0.001 to 0.1	0.001 to 0.1	0.1 to 1	CC(=O)c1c(N)n2ncc(-c3ccc(-c4ccccc4)nc3)c2nc1[C@H]1CC[C@](O)(CO)CC1 [Compound 140, 1-(7-amino-5-((1S,4S)-4-hydroxy-4-(hydroxymethyl)cyclohexyl)-3-(6-phenylpyridin-3-yl)pyrazolo[1,5-a]pyrimidin-6-yl)ethanone]
0.001 to 0.1	0.001 to 0.1	0.1 to 1	CC(=O)c1c(N)n2ncc(-c3ccc(-c4ccccc4)nc3)c2nc1[C@H]1CC[C@](O)(CS(C)(=O)=O)CC1 [Compound 162, 1-(7-amino-5-((1S,4S)-4-hydroxy-4-(methylsulfonylmethyl)cyclohexyl)-3-(6-phenylpyridin-3-yl)pyrazolo[1,5-a]pyrimidin-6-yl)ethanone]
0.001 to 0.1	0.001 to 0.1	0.1 to 1	CS(=O)(=O)c1c(C2CCC(O)(CO)CC2)nc2c(-c3cnn(-c4ccccc4)c3)cnn2c1N (stereo not drawn) [Compound 166, 4-(7-amino-6-(methylsulfonyl)-3-(1-phenyl-1H-pyrazol-4-yl)pyrazolo[1,5-a]pyrimidin-5-yl)-1-(hydroxymethyl)cyclohexanol]
